Experimental data taken from patent US7531541B2, “Partial mGluR5 antagonists for treatment of anxiety and CNS disorders” (Vanderbilt University, priority 2005, dated 2009).
Values joined by “and” are separate entries in the source; they are usually repeats but may differ in a detail not shown here. Equal entries are not always repeated.

Legend:
[1] = biological target: T1, mGluR5 (Rattus norvegicus, UniProt P31424); assay: Calcium fluorescence assay (FDSS) in rat cortical astrocytes; format: cell-based; conditions: for effect on glutamate concentration response curve: 10 μM (maximally effective) compound, range of glutamate concentrations; for effect on glutamate-induced calcium response: 10 μM compound, 5 min; for effect on glutamate-induced calcium response / maximal reduction of the response to glutamate / antagonist activity across a range of concentrations / IC50: nearly maximal glutamate; for maximal inhibition relative to that of MPEP: % of maximal inhibition by MPEP; for block of MPEP-induced inhibition of the glutamate response: compound added 1 min before; for rightward shift of concentration response curve compared to MPEP: antagonism of mGluR5-mediated calcium increase; for activation of mGluR5 when added alone: compound alone; for maximal reduction of the response to glutamate: concentration response; for IC50: read-out: IC50 at inhibiting mGluR5 receptor responses; for potentiation of response to suboptimal glutamate: DFB 30 μM, CDPPB 3 μM
T1 construct: they provide a native system that endogenously expresses high levels of mGluR5; endogenous in cells; host or cells: primary (secondary-culture) rat cortical astrocytes from Sprague Dawley pups
Description: Metabotropic glutamate receptor 5induced phosphorylation of extracellular signal-regulated kinase in astrocytes depends on transactivation of the epidermal growth factor receptor. J Neurosci 21:9619-28). In brief, neocortices from 2-4 day old Sprague Dawley rat pups were dissected and dissociated in DMEM by trituration with 1 ml pipette tips. The cells were then centrifuged and resuspended in DMEM (containing 1 mM sodium pyruvate, 2 mM L-glutamine, PenStrep) supplemented with 10% FBS in T75 tissue culture flasks; the medium was changed the next day. Cell cultures were maintained at 37° C. in an atmosphere of 95% air/5% CO2 for 6-8 days. Cells were shaken overnight (280-310 rpm) to remove oligodendrocytes and microglia.
Secondary astrocytes were trypsinzed and replated into poly-D-Lysine coated 384 well plates (Greiner) at 10K cells/well in 20 μL growth medium (DMEM containing 10% FBS, 20 mM HEPES, 2 mM L-glutamine and antibiotic/antimycotic). The second day the medium was changed to growth medium and G-5 supplement (Invitrogen) containing EGF (10 ng/ml), basic fibroblast growth factor (5 ng/ml), insulin (5 μg/ml), and other factors. The cells were nearly confluent within 2 days and resembled the polygonal astrocytic appearance in vivo. The fourth day, approximately 20 hours before experiments, the medium was changed to glutamine free DMEM containing 5% dialyzed FBS, 20 mM HEPES and antibiotic/antimycotic. On day five medium was removed from the plate and the cells incubated with 20 μL of 1 μM Fluo-4AM (Molecular Probes) in assay buffer (Hank's balanced salt solution, 20 mM HEPES and 2.5 mM Probenecid) for 1 h at 37° C. Dye was removed and 20 μL assay buffer was added. Ca2+ flux was measured using the Functional Drug Screening System (FDSS6000 by Hamamatsu).
Compounds were diluted into assay buffer to a 5× stock which was applied to the cells. For neutral measurements, cells were preincubated with the test compounds for 1 min, potentiator or antagonist was added, and the cells incubated for an additional 5 min. Cells were then stimulated for 2 min with an appropriate concentration of glutamate. For potentiator and antagonist measurements, cells were preincubated with the test compounds for 5 min and then stimulated for 2 min with an appropriate concentration of glutamate. Data were collected at ¼ Hz during the preincubation period and at 1 Hz during the glutamate addition phase of the experiment.
Raw data were normalized in a three step process: (1) Cell number and non-uniform illumination/imaging were controlled for based on the initial readings for the well, (2) the signal amplitude for the data point immediately preceding the agonist addition was subtracted from each point on the trace, (3) data were normalized to the maximal response for each experiment. Concentration response curves were generated using Prism 4.0 (GraphPad).

[2] = biological target: T2, rat mGluR5 (allosteric MPEP site) (Rattus norvegicus, UniProt P31424); assay: [3H]methoxyPEPy radioligand binding assay, membranes of HEK293A cells stably expressing rat mGluR5; conditions: for Ki: 2 nM [3H]methoxyPEPy, 60 min room temperature, rat mGluR5 HEK293A membranes, read-out: Ki, displacement of [3H]methoxyPEPy binding; for inhibition of binding of [3H]methoxyPEPy to mGluR5 membranes: extent of displacement, in words
T2 construct: expressed in transfected cells
Description: FIG. 3. […] Samples were filtered through glass fiber filters and washed extensively. […] Concentration response curves were generated from the means of three separate experiments. Error bars represent SEM.
Membranes were prepared from HEK293A cells stably expressing rat mGluR5. Compounds were diluted into assay buffer (50 mM Tris/0.9% NaCl, pH 7.4) to a 5× stock and 20 μL test compound added to each well of a 96 well assay plate. 60 μL aliquots of membranes diluted in assay buffer (10 μg/well) were added to each well. 20 μL [3H]methoxyPEPy (2 nM final concentration in assay buffer) was added and the reaction incubated at room temperature for 60 min with shaking. After the incubation period, the membrane-bound ligand was separated from free ligand by filtration through glass-fiber 96 well filter plates (Unifilter-96, GF/B by Perkin Elmer). The contents of each well was transferred simultaneously to the filter plate and washed 4 times with assay buffer (Brandel Cell Harvester). 30 μL scintillation fluid was added to each well and the membrane-bound radioactivity determined by scintillation counting (TopCount by Perkin-Elmer).

[3] = biological target: T3, mGluR5 (Homo sapiens, UniProt P41594); conditions: recombinant CHO cells, Published US Application 2001/0056084; cited from earlier work
T3 construct: host or cells: CHO cells transfected with mGluR5 (earlier work)

[4] = test system: mGluR5 receptor responses in STN neurons; assay: Whole-cell electrophysiology in STN neurons of rat midbrain slices (DHPG-induced depolarization); format: cell-based
[5] = 5MPEP 3, 10, 30 μM on MPEP concentration response

T2 sequence (P31424 21-1203): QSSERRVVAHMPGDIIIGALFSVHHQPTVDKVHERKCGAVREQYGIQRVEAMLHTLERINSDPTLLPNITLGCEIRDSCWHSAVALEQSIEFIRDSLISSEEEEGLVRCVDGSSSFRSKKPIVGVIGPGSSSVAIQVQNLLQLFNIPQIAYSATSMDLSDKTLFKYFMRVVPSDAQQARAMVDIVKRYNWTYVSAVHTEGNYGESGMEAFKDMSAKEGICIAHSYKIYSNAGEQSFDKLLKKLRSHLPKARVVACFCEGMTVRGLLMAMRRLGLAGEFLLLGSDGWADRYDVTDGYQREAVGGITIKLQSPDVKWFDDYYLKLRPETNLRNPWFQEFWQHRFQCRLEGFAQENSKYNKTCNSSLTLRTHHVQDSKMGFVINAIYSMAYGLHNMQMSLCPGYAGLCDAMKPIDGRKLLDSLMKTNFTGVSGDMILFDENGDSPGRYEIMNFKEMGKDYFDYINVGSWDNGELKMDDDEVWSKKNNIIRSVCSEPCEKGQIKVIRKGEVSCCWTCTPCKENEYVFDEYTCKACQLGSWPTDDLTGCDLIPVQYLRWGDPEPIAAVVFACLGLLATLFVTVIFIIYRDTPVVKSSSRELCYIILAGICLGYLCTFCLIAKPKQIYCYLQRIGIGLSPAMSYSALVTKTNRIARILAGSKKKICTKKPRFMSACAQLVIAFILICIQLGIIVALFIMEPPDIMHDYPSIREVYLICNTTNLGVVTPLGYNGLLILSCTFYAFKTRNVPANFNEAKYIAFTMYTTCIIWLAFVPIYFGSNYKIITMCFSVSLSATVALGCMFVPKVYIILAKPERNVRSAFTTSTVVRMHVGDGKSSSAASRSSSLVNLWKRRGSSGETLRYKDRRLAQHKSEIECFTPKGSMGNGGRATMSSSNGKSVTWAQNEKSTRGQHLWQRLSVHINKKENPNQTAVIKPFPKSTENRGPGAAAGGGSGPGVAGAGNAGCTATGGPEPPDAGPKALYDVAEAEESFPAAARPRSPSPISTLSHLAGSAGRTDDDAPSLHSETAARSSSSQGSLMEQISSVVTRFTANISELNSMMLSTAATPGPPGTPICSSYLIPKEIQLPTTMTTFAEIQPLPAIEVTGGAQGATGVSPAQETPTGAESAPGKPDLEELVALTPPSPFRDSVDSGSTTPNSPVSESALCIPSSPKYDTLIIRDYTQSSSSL
T1 sequence (P31424 21-1203): as above
T3 sequence (P41594 21-1212): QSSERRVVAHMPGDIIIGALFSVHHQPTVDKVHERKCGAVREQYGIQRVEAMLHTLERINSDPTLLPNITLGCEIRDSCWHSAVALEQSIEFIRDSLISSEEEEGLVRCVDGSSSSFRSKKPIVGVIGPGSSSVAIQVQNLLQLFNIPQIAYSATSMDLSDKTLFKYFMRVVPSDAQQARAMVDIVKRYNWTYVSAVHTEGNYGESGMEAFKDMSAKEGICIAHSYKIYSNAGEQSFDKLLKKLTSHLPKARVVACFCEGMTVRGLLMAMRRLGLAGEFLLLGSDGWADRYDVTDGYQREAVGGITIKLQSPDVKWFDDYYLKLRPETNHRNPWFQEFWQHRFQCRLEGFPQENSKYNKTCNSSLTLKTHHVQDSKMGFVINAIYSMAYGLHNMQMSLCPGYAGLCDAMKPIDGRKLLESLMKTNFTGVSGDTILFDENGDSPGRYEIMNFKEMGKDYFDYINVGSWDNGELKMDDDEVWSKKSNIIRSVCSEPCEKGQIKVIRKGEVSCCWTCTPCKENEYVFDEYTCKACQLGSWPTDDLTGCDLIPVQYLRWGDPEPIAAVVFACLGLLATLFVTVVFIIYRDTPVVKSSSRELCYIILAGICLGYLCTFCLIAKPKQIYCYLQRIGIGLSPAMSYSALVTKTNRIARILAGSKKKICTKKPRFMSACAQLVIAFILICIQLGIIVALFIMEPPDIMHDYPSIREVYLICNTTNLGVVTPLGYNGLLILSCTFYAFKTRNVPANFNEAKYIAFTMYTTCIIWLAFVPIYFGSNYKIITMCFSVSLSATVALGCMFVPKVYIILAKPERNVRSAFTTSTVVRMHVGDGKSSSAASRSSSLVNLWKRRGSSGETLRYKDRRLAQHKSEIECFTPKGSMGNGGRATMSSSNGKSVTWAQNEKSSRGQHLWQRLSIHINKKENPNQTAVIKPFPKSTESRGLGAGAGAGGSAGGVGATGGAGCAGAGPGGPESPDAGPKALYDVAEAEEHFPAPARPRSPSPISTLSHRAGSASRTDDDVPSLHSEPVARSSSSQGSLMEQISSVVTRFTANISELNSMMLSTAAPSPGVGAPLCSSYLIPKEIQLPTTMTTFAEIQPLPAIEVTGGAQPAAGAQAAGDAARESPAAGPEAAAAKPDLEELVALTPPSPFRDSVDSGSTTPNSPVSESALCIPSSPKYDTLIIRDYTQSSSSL

Compound: 3-(6-Methylpyridin-2-ylethynyl)-5-bromopyridine [Br-5MPEPy]
- effect on glutamate concentration response curve [1]: rightward and partial downward shift
- effect on glutamate-induced calcium response [1]: partially inhibited
- maximal inhibition relative to that of MPEP [1]: approximately 50%
- block of MPEP-induced inhibition of the glutamate response ([1]; MPEP 50 nM): only partially blocked
- rightward shift of concentration response curve compared to MPEP [1]: approximately 10 fold
- activation of mGluR5 when added alone [1]: do not partially activate
- maximal reduction of the response to glutamate [1]: approximately 50%
- antagonist activity across a range of concentrations [1]: partial antagonist activity
- IC50 [1]: ~300 nM
- Ki [2]: 182 ± 50 nM
- inhibition of binding of [3H]methoxyPEPy to mGluR5 membranes [2]: fully inhibited

Compound: Cc1ccc(C#Cc2ccccc2)nc1 [5MPEP, 5-methyl-2-phenylethynyl-pyridine, reference compound]
- inhibition of mGluR5 receptor responses [3]: completely inactive
- effect on glutamate-induced calcium response [1]: no inhibitory effect
- effect on mGluR5 response to glutamate alone ([1]; 5MPEP 30 μM, suboptimal glutamate): does not alter
- block of allosteric potentiator responses to DFB and CDPPB ([1]; 5MPEP 30 μM, DFB 30 μM or CDPPB 3 μM, suboptimal glutamate): completely blocks
- Schild regression slope, 5MPEP versus MPEP [1, 5]: 1.076±0.0094 and 1.076±0.01
- Schild x-intercept [1, 5]: −6.249
- block of MPEP-induced inhibition of the glutamate response ([1]; MPEP 50 nM): fully blocked
- Ki ([1]; extrapolated from Schild regression, read-out: Ki from Schild analysis (x-intercept)): 560 nM
- DHPG-induced depolarization in presence of CDPPB and 5MPEP [4]: 7.05±0.82 mV
- DHPG-induced depolarization in presence of MPEP and 5MPEP [4]: 14.28±2.1 mV
- effect on membrane potential of STN neurons [4]: no effect

Compound: N#Cc1cccc(C(=O)Nc2cc(-c3ccccc3)nn2-c2ccccc2)c1 [CDPPB, 3-cyano-N-(I,3-diphenyl-1 H-pyrazol-5-yl)benzamide, reference compound]
- potentiation of response to suboptimal glutamate [1]: potentiated
- DHPG-induced depolarization in presence of CDPPB ([4]; DHPG 10 μM + CDPPB 10 μM): 13.39±1.66 mV

Compound: Fc1cccc(C=NN=Cc2cccc(F)c2)c1 [DFB, 3,3′-di fluorobenzaldazine, reference compound]
- potentiation of response to suboptimal glutamate [1]: potentiated

Compound: N[C@H](C(=O)O)c1cc(O)cc(O)c1 [DHPG]
- depolarization of STN neurons ([4]; DHPG 10 μM alone (submaximal)): 6.89 ± 1.22 mV
- depolarization of STN neurons ([4]; DHPG 100 μM alone, TTX 500 nM): 14.82 ± 2.21 mV

Compound: COc1cccc(C#Cc2ccc(C)cn2)c1 [M-5MPEP, 2-(3-Methoxyphenylethynyl)-5-methylpyridine]
- effect on glutamate concentration response curve [1]: rightward and partial downward shift
- effect on glutamate-induced calcium response [1]: partially inhibited
- maximal inhibition relative to that of MPEP [1]: approximately 50%
- block of MPEP-induced inhibition of the glutamate response ([1]; MPEP 50 nM): only partially blocked
- rightward shift of concentration response curve compared to MPEP [1]: approximately 10 fold
- activation of mGluR5 when added alone [1]: do not partially activate
- maximal reduction of the response to glutamate [1]: approximately 50%
- antagonist activity across a range of concentrations [1]: partial antagonist activity
- IC50 [1]: ~300 nM
- Ki [2]: 145 nM
- inhibition of binding of [3H]methoxyPEPy to mGluR5 membranes [2]: fully inhibited

Compound: Cc1cccc(C#Cc2ccccc2)n1 [MPEP, 2-methyl-6-(phenylethynyl)-pyridine, reference compound]
- effect on glutamate-induced calcium response [1]: fully blocked
- inhibition of calcium response to nearly maximal glutamate ([1]; MPEP 50 nM): robust inhibition
- DHPG-induced depolarization in presence of MPEP ([4]; DHPG 100 μM + MPEP 10 μM): 6.15+0.82 mV

Compound: Brc1ccc(C#Cc2ccccc2)nc1.Cl [YP260]
- partial antagonist activity (FIG. 11) ([1]; similarly to the figures above): partial activities
